Experimental data published in patent US8163779B2, “Glucokinase activators” (Takeda San Diego, Inc., priority 2006, dated 2012).
Where a name gives a salt, the structure may show the parent alone.

The compounds below were run against T1, glucokinase (GK) (Homo sapiens, UniProt P35557) (assay: enzymatic glucokinase activity assay (ATP consumption, KinaseGlo luminescence)). Conditions: recombinant GK residues 12-465; 5 μM ATP, 5 mM Glucose; Kact = concentration that displays 50% of the maximal increase in GK activity; read-out: pKact.
T1 construct: I.D. No. 1 corresponds to residues 12-465 of glucokinase; made in house; host or cells: E. coli DH10b-T1r
T1 sequence (P35557 with tags, fused parts or gaps isoform P35557-2): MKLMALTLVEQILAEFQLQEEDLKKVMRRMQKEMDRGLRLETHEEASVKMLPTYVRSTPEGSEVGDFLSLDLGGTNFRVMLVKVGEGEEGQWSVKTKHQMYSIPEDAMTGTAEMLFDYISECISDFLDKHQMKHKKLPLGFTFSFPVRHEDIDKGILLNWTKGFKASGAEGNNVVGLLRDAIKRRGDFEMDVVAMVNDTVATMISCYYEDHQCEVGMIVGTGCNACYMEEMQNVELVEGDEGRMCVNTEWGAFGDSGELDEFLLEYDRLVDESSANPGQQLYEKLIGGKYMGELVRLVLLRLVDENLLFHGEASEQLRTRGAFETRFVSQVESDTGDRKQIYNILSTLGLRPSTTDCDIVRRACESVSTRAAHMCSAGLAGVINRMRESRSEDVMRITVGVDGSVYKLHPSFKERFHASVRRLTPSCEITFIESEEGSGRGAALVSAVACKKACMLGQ
Format: biochemical
Description: The activity of compounds as glucokinase activators may be assayed in vitro, in vivo or in a cell line. Provided below is an enzymatic glucokinase activity assay.
Purified glucokinase may be obtained as follows. […] SEQ.
The expression of recombinant glucokinase protein may be carried out by transformation and growth of DH10b-T1r E. coli cells incorporating the (pFLAG-CTC) plasmid in LB media. Protein expression can be induced in this system by the addition of IPTG to the culture medium.
Recombinant protein may be isolated from cellular extracts by passage over Sepharose Q Fast Flow resin (Pharmacia). This partially purified GK extract may then be further purified by a second passage over Poros HQ 10 (Applied Biosystems). The purity of GK may be determined on denaturing SDS-PAGE gel. Purified GK may then be concentrated to a final concentration of 20.0 mg/ml. After flash freezing in liquid nitrogen, the proteins can be stored at −78° C. in a buffer containing 25 mM TRIS-HCl pH 7.6, 50 mM NaCl, and 0.5 mM TCEP.
The activation properties of compounds for GK may be determined using a black 384-well-plate format under the following reaction conditions: 25 mM Hepes pH 7.2, 25 mM NaCl, 10 mM MgCl2, 0.01% Brij35, 1 mM DTT, 5 μM ATP, 5 mM Glucose 2% DMSO. The amount of ATP consumed may be determined quantitatively by addition of equal volume of luciferase reagent (luciferase+beetle luciferin—KinaseGlo Luminescent Kinase Assay kit from Promega). The luminescence intensity may be measured by using the Analyst HT from LJL Biosystems.
The reaction mixture may then be incubated at room temperature for 60 min, and quenched and developed by addition of 10 μL of luciferase reagent. Luminescence intensities of the resulting reaction mixtures may be measured after a 10 min incubation at room temperature. The luminescence intensity may be measured by using the Analyst HT from LJL Biosystems.
pKact values may be calculated by non-linear curve fitting of the compound concentrations and luminescence intensities to a standard inhibition/activation equation.

| Compound | EC50 [µM] |
| --- | --- |
| Cc1c(S(=O)(=O)C2CCCC2)cc(=O)n([C@@H](CC2CCOCC2)C(=O)Nc2ncc(F)s2)c1C [Example 151, (S)-2-(4-(cyclopentylsulfonyl)-5,6-dimethyl-2-oxopyridin-1(2H)-yl)-N-(5-fluorothiazol-2-yl)-3-(tetrahydro-2H-pyran-4-yl)propanamide] | < 1.58 |
| Cc1cc(S(=O)(=O)C2CCCC2)cc(=O)n1C(CC1CC1)C(=O)Nc1nccs1 (stereo not shown) [Example 12, 2-(4-(cyclopentylsulfonyl)-6-methyl-2-oxopyridin-1(2H)-yl)-3-cyclopropyl-N-(thiazol-2-yl)propanamide] | 1.58 to 15.8 |
| Cc1cc(S(C)(=O)=O)cc(=O)n1C(CC1CCCCC1)C(=O)Nc1nccs1 (stereo not shown) [Example 3, 3-cyclohexyl-2-(6-methyl-4-(methylsulfonyl)-2-oxopyridin-1(2H)-yl)-N-(thiazol-2-yl)propanamide trifluoroacetic acid salt] | 1.58 to 15.8 |
| Cc1cc(S(=O)(=O)Cc2ccco2)cc(=O)n1[C@H](CC1CCOCC1)C(=O)Nc1ncc(Cl)s1 [Example 142, (R)-N-(5-chlorothiazol-2-yl)-2-(4-(furan-2-ylmethylsulfonyl)-6-methyl-2-oxopyridin-1(2H)-yl)-3-(tetrahydro-2H-pyran-4-yl)propanamide] | > 15.8 |
| COC(=O)c1cnc(NC(=O)[C@H](CC2CCOCC2)n2ccc(S(=O)(=O)C3CCCC3)cc2=O)s1 [Example 45, (5)-methyl 2-(2-(4-(cyclopentylsulfonyl)-2-oxopyridin-1(2H)-yl)-3-(tetrahydro-2H-pyran-4-yl)propanamido)thiazole-5-carboxylate] | < 1.58 |
| Cc1cc(S(=O)(=O)C2CCCC2)cc(=O)n1C(CC1CCCC1)C(=O)Nc1nccs1 (stereo not shown) [Example 14, 3-cyclopentyl-2-(4-(cyclopentylsulfonyl)-6-methyl-2-oxopyridin-1(2H)-yl)-N-(thiazol-2-yl)propanamide] | < 1.58 |
| Cc1cc(S(=O)(=O)c2cccc(F)c2)cc(=O)n1C(CC1CCOCC1)C(=O)Nc1ncc(F)s1 (stereo not shown) [Example 159, 2-(4-(3-fluorophenylsulfonyl)-6-methyl-2-oxopyridin-1(2H)-yl)-N-(5-fluorothiazol-2-yl)-3-(tetrahydro-2H-pyran-4-yl)propanamide] | 1.58 to 15.8 |
| Cc1cc(-c2ccc(F)c(Cl)c2)cc(=O)n1[C@@H](CC1CCCCC1)C(=O)Nc1nccs1 [Example 106, (S)-2-(4-(3-chloro-4-fluorophenyl)-6-methyl-2-oxopyridin-1(2H)-yl)-3-cyclohexyl-N-(thiazol-2-yl)propanamide] | > 15.8 |
| CS(=O)(=O)c1ccn(C(CC2CCOCC2)C(=O)Nc2ncc(CCC(=O)O)s2)c(=O)c1 (stereo not shown) [Example 53, 3-(2-(2-(4-(methylsulfonyl)-2-oxopyridin-1(2H)-yl)-3-(tetrahydro-2H-pyran-4-yl)propanamido)thiazol-5-yl)propanoic acid] | > 15.8 |
| Cc1cc(S(=O)(=O)C2CC2)c(Cl)c(=O)n1[C@H](CC1CCCCC1)C(=O)Nc1ncc(Cl)s1 [Example 78, (R)-2-(3-chloro-4-(cyclopropylsulfonyl)-6-methyl-2-oxopyridin-1(2H)-yl)-N-(5-chlorothiazol-2-yl)-3-cyclohexylpropanamide] | 1.58 to 15.8 |
| O=C(Nc1nccs1)C(CC1CCCCC1)n1ccc(S(=O)(=O)C2CCCC2)cc1=O (stereo not shown) [Example 8, 3-cyclohexyl-2-(4-(cyclopentylsulfonyl)-2-oxopyridin-1(2H)-yl)-N-(thiazol-2-yl)propanamide trifluoroacetic acid salt] | < 1.58 |
| Cc1cc(S(=O)(=O)Cc2ccco2)cc(=O)n1C(CC1CCCCC1)C(=O)Nc1nccs1 (stereo not shown) [Example 81, 3-cyclohexyl-2-(4-(furan-2-ylmethylsulfonyl)-6-methyl-2-oxopyridin-1(2H)-yl)-N-(thiazol-2-yl)propanamide] | < 1.58 |
| Cc1cc(-c2cccc(Cl)c2)cc(=O)n1[C@@H](CC1CCCCC1)C(=O)Nc1nccs1 [Example 92, (S)-2-(4-(3-chlorophenyl)-6-methyl-2-oxopyridin-1(2H)-yl)-3-cyclohexyl-N-(thiazol-2-yl)propanamide] | > 15.8 |
| O=C(Nc1ncc(Cl)s1)C(CC1CCOCC1)n1cc(Cl)c(S(=O)(=O)C2CCCC2)cc1=O (stereo not shown) [Example 185, 2-(5-chloro-4-(cyclopentylsulfonyl)-2-oxopyridin-1(2H)-yl)-N-(5-chlorothiazol-2-yl)-3-(tetrahydro-2H-pyran-4-yl)propanamide] | 1.58 to 15.8 |
| O=C(Nc1ncc(Cl)s1)C(CC1CCOCC1)n1cc(Cl)c(S(=O)(=O)C2CC2)cc1=O (stereo not shown) [Example 179, 2-(5-chloro-4-(cyclopropylsulfonyl)-2-oxopyridin-1(2H)-yl)-N-(5-chlorothiazol-2-yl)-3-(tetrahydro-2H-pyran-4-yl)propanamide] | 1.58 to 15.8 |
| Cc1cc(N2CCOCC2)cc(=O)n1[C@H](CC1CCCCC1)C(=O)Nc1nccs1 (stereo in doubt) [Example 79, 3-cyclohexyl-2-(6-methyl-4-morpholino-2-oxopyridin-1(2H)-yl)-N-(thiazol-2-yl)propanamide] | > 15.8 |

Continued, values first:

| EC50 [µM] | Compound |
| --- | --- |
| > 15.8 | Cc1cc(S(=O)(=O)C2CC2)cc(=O)n1[C@H](CC1CCCC1)C(=O)Nc1cnccn1 [Example 170, (R)-3-cyclopentyl-2-(4-(cyclopropylsulfonyl)-6-methyl-2-oxopyridin-1(2H)-yl)-N-(pyrazin-2-yl)propanamide] |
| > 15.8 | COc1ccc(Cl)cc1-c1cc(C)n([C@@H](CC2CCCCC2)C(=O)Nc2nccs2)c(=O)c1 [Example 103, (S)-2-(4-(5-chloro-2-methoxyphenyl)-6-methyl-2-oxopyridin-1(2H)-yl)-3-cyclohexyl-N-(thiazol-2-yl)propanamide] |
| < 1.58 | Cc1cc(S(=O)(=O)C2CCCC2)cc(=O)n1[C@@H](CC1CCOCC1)C(=O)Nc1ncc(Cl)s1 [Example 38, (S)-N-(5-chlorothiazol-2-yl)-2-(4-(cyclopentylsulfonyl)-6-methyl-2-oxopyridin-1(2H)-yl)-3-(tetrahydro-2H-pyran-4-yl)propanamide] |
| 1.58 to 15.8 | Cc1cc(S(=O)(=O)C2CC2)c(N)c(=O)n1[C@@H](CC1CCCC1)C(=O)Nc1ncc(F)s1 [Example 155, (S)-2-(3-amino-4-(cyclopropylsulfonyl)-6-methyl-2-oxopyridin-1(2H)-yl)-3-cyclopentyl-N-(5-fluorothiazol2-yl)propanamide] |
| > 15.8 | Cc1cc(S(=O)(=O)C2CCCC2)cc(=O)n1C(Cc1ccc(O)cc1)C(=O)Nc1nccs1 (stereo not shown) [Example 28, 2-(4-(cyclopentylsulfonyl)-6-methyl-2-oxopyridin-1(2H)-yl)-3-(4-hydroxyphenyl)-N-(thiazol-2-yl)propanamide] |
| > 15.8 | Cc1cc(S(=O)(=O)C2CCOCC2)cc(=O)n1[C@H](CC1CCCC1)C(=O)Nc1ncc(F)s1 [Example 194, (R)-3-cyclopentyl-N-(5-fluorothiazol-2-yl)-2-(6-methyl-2-oxo-4-(tetrahydro-2H-pyran-4-ylsulfonyl)pyridin-1(2H)-yl)propanamide] |
| > 15.8 | O=C(Nc1nc2ccc(O)cc2s1)C(CC1CCOCC1)n1ccc(S(=O)(=O)C2CC2)cc1=O (stereo not shown) [Example 84, 2-(4-(cyclopropylsulfonyl)-2-oxopyridin-1(2H)-yl)-N-(6-hydroxybenzo[d]thiazol-2-yl)-3-(tetrahydro-2H-pyran-4-yl)propanamide] |
| 1.58 to 15.8 | Cc1cc(S(=O)(=O)C2CC2)cc(=O)n1[C@@H](CC1CCCC1)C(=O)Nc1cnccn1 [Example 171, (S)-3-cyclopentyl-2-(4-(cyclopropylsulfonyl)-6-methyl-2-oxopyridin-1(2H)-yl)-N-(pyrazin-2-yl)propanamide] |
| > 15.8 | CN1CCN(Cc2cnc(NC(=O)C(CC3CCOCC3)n3ccc(S(=O)(=O)C4CC4)cc3=O)s2)CC1 (stereo not shown) [Example 147, 2-(4-(cyclopropylsulfonyl)-2-oxopyridin-1(2H)-yl)-N-(5-((4-methylpiperazin-1-yl)methyl)thiazol-2-yl)-3-(tetrahydro-2H-pyran-4-yl)propanamide] |
